Where no end group is shown, it is not given here.
Tests used:
[1] = system: NanoLuc-EV71 reporter virus / EV71 virus; test: NanoLuc-EV71 reporter virus luciferase and viral RNA time course; assay type: cell-based, enterovirus 71 (EV71); conditions: 1.5 μM peptide pre-incubated with virus 1 hr, RD cells, luciferase at time points
Experimental: Fig 2 LL-18 and FF-18 inhibit EV71 infection at the early stages of infection. (A-B) NanoLuc-EV71 reporter virus (A) or EV71 virus (MOI = 1, B) was pre-incubated with 1.5 μM LL-18 or FF-18 for 1 hr before they were used to infect RD cells. Luciferase (A) or viral RNA (B) was determined at indicated time points. Viral RNAs were normalized to mock treated cells at 1 h.p.i. ***, P<0.001. (C-E) EV71 virus (MOI = 1) was either pre-incubated with 1.5 μM LL-18 before infection (-2 and -1 time points), added simultaneously with LL-18 (0 time point) or LL-18 was added at indicated time points post-infection (1, 2, 4, 7 time points) and viral VP1 expression (C), cell viability (D), or viral titer (E) was determined 24 h.p.i. ns, not significant; **, P<0.01; ***, P<0.001. (F-H) EV71 virus (MOI = 1) was either pre-incubated with 1.5 μM FF-18 before infection (-2 and -1 time points), added simultaneously with FF-18 (0 time point) or FF-18 was added at indicated time points post-infection (1, 2, 4, 7 time points) and viral VP1 expression (F), cell viability (G), or viral titer (H) was determined 24 h.p.i. ns, not significant; **, P<0.01; ***, P<0.001.
Full-length NanoLuc-EV71 reporter viruses and subgenomic EV71 replicon (SGR) were described previously. […] Nano luciferase and Renilla luciferase were measured with Nano-Glo or Renilla luciferase assay system from Promega (Madison, WI). […]

[2] = system: RD cells; test: Cytotoxicity of peptides on RD cells (Cell Titer-Glo); assay type: cell-based, human; conditions: cell viability plotted against peptide concentration, Cell Titer-Glo (S1A-S1D Fig)
Experimental: To test whether Cathelicidin peptide (LL-37) and its analogues could inhibit enterovirus infection, we conducted viral infection inhibition test on RD cells, which are one of the most commonly used cells for enterovirus propagation. We first assessed the cytotoxicity of LL-37, LL-18, FF-18, and a short form of LL-37 (DL-37) (Fig 1A), and all the peptides tested have a CC50 over 50 μM (S1A–S1D Fig). We then chose lower concentrations to test their antiviral activity. […] In addition, EV71 infection could cause cytopathic effect (CPE) on RD cells, and peptide could rescue EV71-induced cell death as assayed by crystal violet staining (Fig 1E) or cellular ATP content measurement (Fig 1F).
(§1) Cell viability assays were carried out using the Cell Titer-Glo Luminescent Cell Viability Assay Kit (Promega, Madison, WI) following the manufacturer’s instructions. Luminescence signals were measured using a BioTek Neo2 microplate reader.
(§2) (A-D) Cell viability of RD cells treated with the indicated amount of DL-37 (A), LL-37 (B), LL-18 (C), or FF-18 (D) was plotted against peptide concentration, and the cytotoxicity was determined. (E) EV71 virus pre-incubated with indicated amounts of DL-37, and the cell viability was determined 24 h.p.i. ***, P<0.001. (F-G) CVB5 (F) or Echo7 (G) virus pre-incubated with 0.3, 0.9, or 1.5 μM of peptides were used to infect RD cells. Cell viability was determined 24 h.p.i. ***, P<0.001. (H-I) CVB5 (H) or Echo7 (I) virus pre-incubated with 3, 6, or 12 μM of peptides were used to infect RD cells. Cell viability was determined 24 h.p.i. ***, P<0.001. (TIF) Click here for additional data file.

[3] = system: Echovirus 7 (Echo7); test: Echo7 infection inhibition on RD cells (cell viability); assay type: cell-based; conditions: for inhibition of Echo7 infection: 0.3, 0.9, or 1.5 μM peptide pre-incubated with virus, RD cell viability 24 h.p.i (S1G Fig); for inhibition of Echo7 infection, higher concentrations: 3, 6, or 12 μM peptide pre-incubated with virus, RD cell viability 24 h.p.i (S1I Fig)
Experimental: Synthetic peptides were purchased from Bioyears Co. Ltd. (Wuhan, China) with purity of more than 95% and dissolved in PBS. To test their inhibitory effects, the EV71 virus (MOI = 1) was incubated with the indicated amount of peptide at room temperature for 1 hr before the mixture was added to RD cells and maintained throughout the experiment. Cell viability, viral titer, or viral protein expression was determined 24 h.p.i. For the time-of-addition experiment, viruses were either pre-incubated with peptides (for the -2 and -1 time points), the mixture was added to the cells simultaneously (for 0 time point), or peptides were added after virus infection (for 1, 2, 4 and 7 h time points) and the virus/peptide was maintained in the culture before cell viability, viral titer, or viral protein expression was determined 24 h.p.i. The TCID50 of the virus was calculated according to the Reed-Muench method.
as §1, §2

[4] = system: EV71 virus; test: Pre-incubation of RD cells with peptide, wash-out, then EV71 infection; assay type: cell-based, enterovirus 71 (EV71); conditions: RD cells incubated with peptide 2 hrs, EV71 MOI = 1, cell viability 24 h.p.i (S3A Fig)
Experimental: Supplementary file ppat.1011967.s003.tif: S3 Fig LL-18 binds directly to virus particles. (A) RD cells were pre-incubated with indicated amounts of LL-18, FF-18, DL-37, or LL-37 for 2 hrs before they were washed extensively to remove unbound peptides. Cells were then infected with the EV71 virus (MOI = 1) and cell viability was determined 24 h.p.i. Values were normalized to uninfected RD cells. ***, P<0.001. (B). ^1H NMR spectra of FF-18 peptide in the absence or presence of EV71 virus (green line) or CVB5 virus (red line). (TIF) Click here for additional data file.

| Sequence | inhibition of NanoLuc expression of NanoLuc-EV71 reporter virus [1] | CC50 [2] | inhibition of Echo7 infection [3] | inhibition of Echo7 infection, higher concentrations [3] | protection when cells are pre-incubated with peptide and unbound peptide washed out [4] |
| --- | --- | --- | --- | --- | --- |
| FRKSKEKIGKFFKRIVQRIFDFLRNLV [FF-18] | could inhibit the expression of NanoLuc as early as 4 hrs post-infection | over 50 μM | neither LL-18 nor FF-18 could inhibit CVB5 or Echo 7 infection | could still not inhibit CVB5 or Echo 7 infection | EV71 could still infect these treated cells and cause cell death |
| FRKSKEKIGKLFKRIVQRILDFLRNLV [LL-18] | could inhibit the expression of NanoLuc as early as 4 hrs post-infection | over 50 μM | neither LL-18 nor FF-18 could inhibit CVB5 or Echo 7 infection | could still not inhibit CVB5 or Echo 7 infection | EV71 could still infect these treated cells and cause cell death |
